Assay results: publication PMC8941652 (European journal of medicinal chemistry, 2022)
In brackets after ≈: the same amount, converted by molar mass.

How the values were obtained:
[1] = tested on: PAS resistant Mtb: FolC mutants; format: cell-based, Mycobacterium tuberculosis
[2] = tested on: Multidrug resistant Mtb strains; test: microbe, parasite or virus in culture; format: cell-based; settings: Mycobacterium tuberculosis
[3] = tested on: Extensively drug resistant Mtb strains; test: microbe, parasite or virus in culture; format: cell-based; settings: for MIC: Mycobacterium tuberculosis

Row | Compound | MIC [1] [µM] | MIC [2] [µM] | activity against XDR and PAS resistant strains ([3]; most XDR and PAS resistant strains) | MIC [3] [µM]
1 | Nc1cc(O)c(C(=O)O)cc1F [Compound 11, 4-Amino-5-fluoro-2-hydroxybenzoic acid] | ≥50 | 6.3 to 50 (≈ 1.08 to 8.56 µg/mL) | largely inactive | –
2 | NNC(=O)c1ccncc1 [Isoniazid] | 0.3 to 0.4 | 0.4 to 19 (≈ 0.0549 to 2.61 µg/mL) | – | 6.3 to 50 (≈ 0.864 to 6.86 µg/mL)
3 | CC(=O)NC[C@H]1CN(c2ccc(N3CCOCC3)c(F)c2)C(=O)O1 [Linezolid] | – | 0.8 to 1.4 (≈ 0.27 to 0.472 µg/mL) | – | 0.9 to 50 (≈ 0.304 to 16.9 µg/mL)
4 | Nc1ccc(C(=O)O)c(O)c1 [PAS, para-Aminosalicylic acid] | 12.5 to 50 | 0.2 to 3.1 (≈ 0.0306 to 0.475 µg/mL) | – | –
